Laboratory results from ChEMBL document CHEMBL5104103 (J Med Chem, 2022).

What was measured:
[1] = target: Epidermal growth factor receptor (Homo sapiens, UniProt P00533); assay: Inhibition of EGFR (unknown origin) using peptide substrate in presence of ATP by caliper electrophoresis method
[2] = Cmax in rat at 20 mg/kg, po or 2 mg/kg, iv; assay type: ADME, organism-based; design: dose 20 mg/kg, route po; details: in vivo
[3] = target: T1, Tyrosine-protein kinase Blk (Homo sapiens, UniProt P51451); assay: Inhibition of BLK (unknown origin) using peptide substrate in presence of ATP by caliper electrophoresis method
Target sequence in this assay (P51451 whole entry): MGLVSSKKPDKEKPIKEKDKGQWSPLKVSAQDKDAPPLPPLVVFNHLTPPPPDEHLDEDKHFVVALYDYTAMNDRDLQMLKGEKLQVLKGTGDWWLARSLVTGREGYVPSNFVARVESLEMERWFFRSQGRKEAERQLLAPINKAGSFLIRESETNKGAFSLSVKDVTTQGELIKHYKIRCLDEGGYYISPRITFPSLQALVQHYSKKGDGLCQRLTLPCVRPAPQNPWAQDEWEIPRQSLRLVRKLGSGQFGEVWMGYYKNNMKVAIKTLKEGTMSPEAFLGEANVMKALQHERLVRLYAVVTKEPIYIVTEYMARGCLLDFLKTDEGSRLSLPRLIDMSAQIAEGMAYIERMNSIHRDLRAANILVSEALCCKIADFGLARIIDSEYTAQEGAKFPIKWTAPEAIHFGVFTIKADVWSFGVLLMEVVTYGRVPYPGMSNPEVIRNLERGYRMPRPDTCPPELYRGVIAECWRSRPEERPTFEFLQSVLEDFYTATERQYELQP

[4] = Oral bioavailability in rat at 20 mg/kg; assay type: ADME, organism-based; details: in vivo
[5] = target: T2, Tyrosine-protein kinase JAK3 (Homo sapiens, UniProt P52333); assay: Inhibition of JAK3 (unknown origin) using peptide substrate in presence of ATP by caliper electrophoresis method
T2 sequence (P52333 whole entry): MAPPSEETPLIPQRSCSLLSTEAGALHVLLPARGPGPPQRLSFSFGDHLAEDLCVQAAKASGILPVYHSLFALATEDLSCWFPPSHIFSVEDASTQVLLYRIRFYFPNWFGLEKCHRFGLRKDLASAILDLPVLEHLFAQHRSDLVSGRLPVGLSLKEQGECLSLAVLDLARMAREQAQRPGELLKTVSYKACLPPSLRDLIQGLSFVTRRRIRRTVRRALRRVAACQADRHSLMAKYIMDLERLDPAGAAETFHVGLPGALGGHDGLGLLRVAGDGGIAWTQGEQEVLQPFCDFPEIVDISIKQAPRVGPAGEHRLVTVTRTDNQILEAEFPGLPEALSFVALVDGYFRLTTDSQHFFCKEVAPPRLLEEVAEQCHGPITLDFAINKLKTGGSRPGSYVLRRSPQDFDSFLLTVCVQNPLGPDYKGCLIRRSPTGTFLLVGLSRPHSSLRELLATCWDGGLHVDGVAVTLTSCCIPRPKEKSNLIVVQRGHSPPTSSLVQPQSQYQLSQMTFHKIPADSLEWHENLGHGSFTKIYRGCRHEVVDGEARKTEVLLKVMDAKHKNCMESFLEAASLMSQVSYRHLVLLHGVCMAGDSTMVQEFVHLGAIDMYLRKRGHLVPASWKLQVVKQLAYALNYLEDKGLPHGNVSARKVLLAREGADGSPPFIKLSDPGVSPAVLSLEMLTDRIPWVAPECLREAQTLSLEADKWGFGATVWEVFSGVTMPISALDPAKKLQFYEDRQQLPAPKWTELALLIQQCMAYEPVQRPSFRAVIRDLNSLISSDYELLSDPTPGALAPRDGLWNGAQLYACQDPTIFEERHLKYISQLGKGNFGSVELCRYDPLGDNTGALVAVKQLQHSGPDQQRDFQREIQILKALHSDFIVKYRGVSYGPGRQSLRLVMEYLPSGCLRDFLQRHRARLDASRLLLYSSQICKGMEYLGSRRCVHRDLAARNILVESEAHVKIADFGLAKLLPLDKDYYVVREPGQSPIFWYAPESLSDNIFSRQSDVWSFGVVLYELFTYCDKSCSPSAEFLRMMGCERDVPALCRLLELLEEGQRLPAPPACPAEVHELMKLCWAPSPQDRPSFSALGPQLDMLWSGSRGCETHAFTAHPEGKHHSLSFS

[6] = target: Receptor tyrosine-protein kinase erbB-4 (Homo sapiens, UniProt Q15303); assay: Inhibition of ERBB4 (unknown origin) using peptide substrate in presence of ATP by caliper electrophoresis method
[7] = Clearance in rat at 2 mg/kg, iv; assay type: ADME, organism-based; details: in vivo
[8] = Permeability across apical to basolateral membrane in human Caco-2 cells; assay type: ADME, cell-based; details: read-out: permeability
[9] = target: T3, Tyrosine-protein kinase BTK (Homo sapiens, UniProt Q06187); assay: Inhibition of biotinylated-labeled BTK-selective probe binding to BTK in human Ramos assessed as target occupancy pretreated for 1 hr followed by probe addition measured for 18 hrs by AlphaScreen assay; assay type: cell-based
[10] = target: T3, Tyrosine-protein kinase BTK; assay: Inhibition of BTK (unknown origin) using peptide substrate in presence of ATP by caliper electrophoresis method
[11] = target: T4, Tyrosine-protein kinase TXK (Homo sapiens) (UniProt P42681); assay: Displacement of competitive tracer from RLK (unknown origin) assessed as target occupancy at […] preincubated for 15 mins measured for 6 hrs relative to control; details: dose 1.5 µM
T4 sequence (whole entry): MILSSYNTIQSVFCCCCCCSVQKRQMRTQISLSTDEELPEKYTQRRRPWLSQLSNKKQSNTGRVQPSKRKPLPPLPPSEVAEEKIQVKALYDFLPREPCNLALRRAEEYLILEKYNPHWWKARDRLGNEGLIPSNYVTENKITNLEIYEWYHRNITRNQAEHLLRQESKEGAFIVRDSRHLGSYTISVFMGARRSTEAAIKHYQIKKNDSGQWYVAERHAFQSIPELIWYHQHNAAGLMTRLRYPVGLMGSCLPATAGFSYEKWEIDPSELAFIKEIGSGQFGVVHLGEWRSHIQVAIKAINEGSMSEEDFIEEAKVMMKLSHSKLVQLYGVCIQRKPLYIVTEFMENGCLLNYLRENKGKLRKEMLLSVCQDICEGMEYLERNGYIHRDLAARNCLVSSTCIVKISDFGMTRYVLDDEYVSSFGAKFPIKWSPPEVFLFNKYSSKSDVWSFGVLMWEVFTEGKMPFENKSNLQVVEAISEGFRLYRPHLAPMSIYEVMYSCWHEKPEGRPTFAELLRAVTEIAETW

[12] = Drug concentration in plasma of collagen-induced arthritis Lewis rat model 30 mg/kg/day, po measured after 6 hrs post-collection of plasma; assay type: ADME, organism-based
[13] = target: T1, Tyrosine-protein kinase Blk; assay: Displacement of competitive tracer from BLK (unknown origin) assessed as target occupancy at […] preincubated for 15 mins measured for 24 hrs relative to control; details: dose 1.5 µM
Target sequence in this assay (P51451 2-505 limits assumed): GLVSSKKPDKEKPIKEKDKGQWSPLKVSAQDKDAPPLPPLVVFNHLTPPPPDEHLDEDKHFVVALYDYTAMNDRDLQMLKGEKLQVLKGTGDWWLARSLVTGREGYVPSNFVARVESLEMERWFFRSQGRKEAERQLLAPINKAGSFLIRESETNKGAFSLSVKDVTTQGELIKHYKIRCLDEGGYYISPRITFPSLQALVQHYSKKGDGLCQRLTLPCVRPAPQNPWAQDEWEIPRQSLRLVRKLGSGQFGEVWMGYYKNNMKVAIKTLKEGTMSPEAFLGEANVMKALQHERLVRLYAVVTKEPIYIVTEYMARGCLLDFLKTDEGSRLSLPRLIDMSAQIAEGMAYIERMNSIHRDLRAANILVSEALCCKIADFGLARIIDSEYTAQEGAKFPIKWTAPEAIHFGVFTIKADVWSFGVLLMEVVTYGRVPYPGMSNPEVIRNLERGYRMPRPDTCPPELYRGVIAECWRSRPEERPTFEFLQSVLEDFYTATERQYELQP

[14] = Toxicity in female Beagle dog assessed as weight loss up to 400 mg/kg/day qd for 12 weeks; assay type: organism-based, Canis lupus familiaris; details: in vivo, 2016 h

Chain of Receptor tyrosine-protein kinase erbB-4 (Q15303 whole entry): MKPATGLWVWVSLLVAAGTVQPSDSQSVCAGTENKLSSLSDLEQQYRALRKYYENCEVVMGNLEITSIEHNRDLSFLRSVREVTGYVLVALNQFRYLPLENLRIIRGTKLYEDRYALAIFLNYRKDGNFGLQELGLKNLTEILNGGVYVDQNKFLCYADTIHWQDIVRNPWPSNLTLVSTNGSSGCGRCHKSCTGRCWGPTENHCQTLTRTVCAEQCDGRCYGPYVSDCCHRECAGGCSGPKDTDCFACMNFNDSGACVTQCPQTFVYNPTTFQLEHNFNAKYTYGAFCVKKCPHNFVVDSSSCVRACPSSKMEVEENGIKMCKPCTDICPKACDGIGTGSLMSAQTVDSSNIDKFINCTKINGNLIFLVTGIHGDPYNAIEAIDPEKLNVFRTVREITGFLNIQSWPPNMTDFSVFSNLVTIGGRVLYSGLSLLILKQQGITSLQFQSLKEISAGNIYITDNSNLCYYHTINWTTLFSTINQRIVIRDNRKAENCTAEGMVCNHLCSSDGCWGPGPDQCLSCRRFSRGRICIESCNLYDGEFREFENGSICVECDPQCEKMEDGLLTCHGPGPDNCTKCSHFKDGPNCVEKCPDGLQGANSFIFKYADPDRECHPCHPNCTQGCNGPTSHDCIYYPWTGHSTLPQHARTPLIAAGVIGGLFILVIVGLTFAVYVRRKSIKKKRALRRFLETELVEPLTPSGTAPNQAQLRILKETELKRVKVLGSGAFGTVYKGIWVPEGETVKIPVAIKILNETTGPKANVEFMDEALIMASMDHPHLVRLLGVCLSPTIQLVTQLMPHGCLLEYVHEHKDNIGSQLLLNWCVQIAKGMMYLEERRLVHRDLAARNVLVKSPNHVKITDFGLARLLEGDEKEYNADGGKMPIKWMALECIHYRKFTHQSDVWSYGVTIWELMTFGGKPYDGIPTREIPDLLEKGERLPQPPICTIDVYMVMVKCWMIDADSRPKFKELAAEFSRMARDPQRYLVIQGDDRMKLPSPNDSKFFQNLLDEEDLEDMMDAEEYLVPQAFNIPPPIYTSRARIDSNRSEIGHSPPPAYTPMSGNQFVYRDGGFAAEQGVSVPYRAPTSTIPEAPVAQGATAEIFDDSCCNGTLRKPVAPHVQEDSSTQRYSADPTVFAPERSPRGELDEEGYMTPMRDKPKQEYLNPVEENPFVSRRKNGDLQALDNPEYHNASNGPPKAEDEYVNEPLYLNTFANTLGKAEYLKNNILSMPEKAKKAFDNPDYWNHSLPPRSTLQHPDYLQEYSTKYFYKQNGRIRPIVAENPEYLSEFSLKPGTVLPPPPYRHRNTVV
Chain of Epidermal growth factor receptor (P00533 whole entry): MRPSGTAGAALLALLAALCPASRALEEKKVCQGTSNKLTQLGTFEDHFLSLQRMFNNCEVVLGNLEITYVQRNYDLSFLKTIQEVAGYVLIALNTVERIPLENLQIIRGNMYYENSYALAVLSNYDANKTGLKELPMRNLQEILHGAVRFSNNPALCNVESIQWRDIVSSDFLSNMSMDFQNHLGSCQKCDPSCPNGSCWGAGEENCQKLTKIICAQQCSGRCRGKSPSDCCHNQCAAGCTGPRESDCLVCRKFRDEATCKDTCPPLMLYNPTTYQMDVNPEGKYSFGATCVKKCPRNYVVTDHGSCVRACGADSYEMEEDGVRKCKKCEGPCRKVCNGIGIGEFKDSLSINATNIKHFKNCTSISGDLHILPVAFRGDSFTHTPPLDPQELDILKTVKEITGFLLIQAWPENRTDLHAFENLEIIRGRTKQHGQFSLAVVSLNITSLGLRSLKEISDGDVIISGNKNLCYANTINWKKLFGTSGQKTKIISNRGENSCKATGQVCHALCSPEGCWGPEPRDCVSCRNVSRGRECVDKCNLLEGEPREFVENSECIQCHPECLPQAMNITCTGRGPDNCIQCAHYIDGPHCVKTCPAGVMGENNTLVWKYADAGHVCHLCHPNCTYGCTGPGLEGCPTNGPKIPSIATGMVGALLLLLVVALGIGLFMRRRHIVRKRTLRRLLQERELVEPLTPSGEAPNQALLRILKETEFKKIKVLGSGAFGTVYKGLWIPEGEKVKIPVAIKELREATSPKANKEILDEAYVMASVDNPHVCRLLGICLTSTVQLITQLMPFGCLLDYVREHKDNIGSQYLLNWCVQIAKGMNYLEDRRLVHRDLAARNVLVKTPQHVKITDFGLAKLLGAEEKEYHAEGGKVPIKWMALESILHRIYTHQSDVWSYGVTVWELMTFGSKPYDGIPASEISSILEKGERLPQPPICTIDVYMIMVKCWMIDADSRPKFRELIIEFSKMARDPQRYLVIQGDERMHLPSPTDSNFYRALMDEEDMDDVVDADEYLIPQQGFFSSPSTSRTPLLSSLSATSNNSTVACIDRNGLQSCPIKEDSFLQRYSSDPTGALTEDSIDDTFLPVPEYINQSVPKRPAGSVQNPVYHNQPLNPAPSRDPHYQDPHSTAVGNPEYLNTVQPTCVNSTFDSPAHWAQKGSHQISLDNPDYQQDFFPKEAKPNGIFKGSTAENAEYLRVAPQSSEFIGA
T3 sequence (Q06187 whole entry): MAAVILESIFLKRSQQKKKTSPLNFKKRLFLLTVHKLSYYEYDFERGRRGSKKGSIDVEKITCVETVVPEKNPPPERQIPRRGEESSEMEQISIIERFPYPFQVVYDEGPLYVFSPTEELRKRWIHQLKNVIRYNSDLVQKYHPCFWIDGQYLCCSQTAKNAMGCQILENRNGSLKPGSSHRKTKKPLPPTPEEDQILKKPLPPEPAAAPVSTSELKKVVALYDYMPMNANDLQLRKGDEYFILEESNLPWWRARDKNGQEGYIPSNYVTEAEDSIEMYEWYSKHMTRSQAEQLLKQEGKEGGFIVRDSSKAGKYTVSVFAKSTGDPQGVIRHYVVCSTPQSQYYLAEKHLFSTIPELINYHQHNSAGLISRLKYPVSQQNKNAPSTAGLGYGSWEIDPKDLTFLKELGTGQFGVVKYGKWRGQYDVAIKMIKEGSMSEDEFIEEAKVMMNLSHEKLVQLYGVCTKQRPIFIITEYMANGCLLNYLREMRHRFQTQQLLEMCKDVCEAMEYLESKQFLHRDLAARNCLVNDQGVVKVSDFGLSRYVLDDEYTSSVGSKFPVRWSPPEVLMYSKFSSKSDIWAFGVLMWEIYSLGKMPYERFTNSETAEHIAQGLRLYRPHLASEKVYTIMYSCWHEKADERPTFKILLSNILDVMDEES

SMILES | IC50 [1] [µM] | Cmax [2] [ng/mL] | IC50 [3] [µM] | bioavailability [4] [%] | IC50 [5] [µM] | IC50 [6] [µM] | clearance [7] [mL/min/kg] | Papp A→B [8] [×10⁻⁶ cm/s] | IC50 [9] [µM] | IC50 [10] [µM] | Activity [11] [%] | concentration at 6 h [12] [ng/mL] | Activity [13] [%] | F ([4]; po, 20 mg/kg) [%] | Activity [14]
CN1CCN(C(C)(C)/C=C(\C#N)C(=O)N2CCC[C@@H](n3nc(-c4ccc(Oc5ccccc5)cc4F)c4c(N)ncnc43)C2)CC1 | 0.98 | 96.5 | 0.0005 | 20.2 | > 5 | 0.041 | 119 | 1 | – | – | – | – | – | – | –
CC(C)(/C=C(/C#N)C(=O)N1CCC[C@@H]1Cn1nc(-c2ccc(Oc3ccccc3)cc2F)c2c(N)ncnc21)N1CCOCC1 | 3 | 406 | 0.092 | 17.3 | > 5 | 0.177 | 120 | 6.8 | 0.0359 | 0.072 | – | – | – | – | –
CC(C)(C)/C=C(\C#N)C(=O)N1CCC[C@@H](n2nc(-c3ccc(Oc4ccccc4)cc3F)c3c(N)ncnc32)C1 [ATUZABRUTINIB] | 0.368 | 326 | 0.0022 | – | > 5 | 0.022 | – | 0.5 | 0.0301 | 0.0018 | 86 | 111 | 1 | 21.1 | Toxic
